Test results published in PMC12606641, “Surface Density of Mono- and Trivalent High-Mannan-Derived Targeting Structures with Different Affinities Impacts Cellular Uptake of Human Serum Albumin-Derived Nanocarriers” (Biomacromolecules, 2025).

Legend:
CD206 CRD4 = target: T1, CD206 CRD4 (Homo sapiens, UniProt P22897); experiment: NanoDSF thermal shift binding study, CD206 CRD4; conditions: for Kd: CD206 CRD4, calculated from EC50 with KD=(1−fuo)×(EC50−[P]/2); for EC50: CD206 CRD4, 12 μM protein, unfolded fraction evaluated at 53 °C, Hill fit, read-out: EC50 (unfolded fraction vs TS concentration)
T1 construct: Carbohydrate recognition domain 4 of CD206; made in house
T1 sequence (P22897 655-778 limits assumed): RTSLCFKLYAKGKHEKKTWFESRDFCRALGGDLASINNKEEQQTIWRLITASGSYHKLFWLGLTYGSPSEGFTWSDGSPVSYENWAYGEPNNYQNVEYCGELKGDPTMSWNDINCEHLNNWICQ
Experimental: (§1) Thermal shift experiments were performed by using a Prometheus NanoDSF instrument (NanoTemper, Munich, Germany). […] Each ligand concentration was measured in triplicate. Samples were subjected to a controlled temperature increase from 20 to 85 °C at a rate of 1.5 °C per minute. Protein unfolding was monitored by measuring the fluorescence emission ratio at 350 and 330 nm. […] Data were analyzed according to the vertical slice method developed by Bai et al. The unfolded fraction was plotted against the ligand concentration, and EC50 values were determined by fitting the data to the Hill equation using GraphPad Prism 8.0.1. K D values were calculated using eq based on the unfolded fraction in the absence of ligand (f uo) and the total protein concentration ([P]). Associated errors were determined according to the standard error propagation rules. KD=(1−fuo)×(EC50−[P]/2) 1 […]
(§2) In this study, NanoDSF was used to investigate the binding affinity of unconjugated monovalent TSs ManN3 and Man3N3, as well as the trivalent TSs (Man)3N3 and (Man3)3N3 for isolated CRDs of CD206 and CD209. Utilization of isolated CRDs instead of the complete tetrameric and octameric receptors allowed an investigation of the affinity without the potential occurrence of avidity effects taking place on the receptor side. […] The observed binding affinities to the isolated CRDs were in the low millimolar range, with all ligands showing stabilizing effects. […] In the solid-phase assay, the biotinylated CRDs were immobilized on streptavidin-coated plates in a defined orientation, likely enhancing the effective presentation of the binding site. In contrast, NanoDSF measurements were conducted with isolated, solubilized monomeric CRDs without surface- or orientation-related effects. Additionally, steric effects and interactions arising from the linker moiety may also impact binding affinity.
3 NanoDSF study for binding of mono- and trivalent TSs ManN3, Man3N3, (Man)3N3, and (Man3)3N3 to the CRDs of CD206 and CD209. (A) Affinity of mono- and trivalent TSs for CRD4 of CD206. (B) Affinity of mono- and trivalent TSs for CRD of CD209. The unfolded fraction of each CRD at different TS concentrations was determined at 53 °C for CD206 and at 63 °C for CD209. The unfolded fraction was plotted against TS concentration, and EC50 values were determined using GraphPad Prism 8.0.1. The respective K D values were calculated from EC50, as described in section , and are given for each case. […]
6 NanoDSF binding study for mono- and trivalent TSs
6.1 Recombinant protein expression and purification.
6.1.1 Carbohydrate recognition domain 4 of CD206
CRD 4 of CD206 was expressed as described previously.50 Briefly, a pT5T expression vector containing CRD4 of CD206 was transformed into competent Escherichia coli (E. coli) BL21 (DE3) cells. The cells were grown in LB medium containing 100 µg/mL ampicillin at 37 °C and 160 rpm until they reached an optical density (OD₆₀₀) of approximately 0.7. Overexpression was induced by adding 0.4 mM Isopropyl-β-D-thiogalactopyranoside (IPTG) for approximately 2.5 hours at 37 °C. Cells were harvested by centrifugation (10.000 × g at 4 °C for 15 minutes) and resuspended in cold buffer A (10 mM Tris-Cl, pH 7.8). Lysis was performed by thoroughly sonicating the cell pellets. Cell debris and inclusion bodies were collected by centrifugation (18,000 × g at 4 °C for 15 minutes), and the supernatant was discarded.
The inclusion bodies were then solubilized in 100 mL of denaturing buffer B (6 M guanidine-HCl, 100 mM Tris-Cl, pH 7.0). After adding 2-mercaptoethanol (10 µL), the suspension was incubated at 4 °C on ice for 30 minutes. Insoluble impurities were removed by centrifugation (18,000 × g at 4 °C for 30 minutes). The supernatant was refolded by three-step dialysis against 2 L of buffer C (0.5 M NaCl, 25 mM Tris-Cl, pH 7.8, 25 mM CaCl₂) at 4 °C overnight. After centrifugation (18,000 × g at 4 °C for […]

CD209 CRD = target: T2, CD209 CRD (Homo sapiens, UniProt Q9NNX6); experiment: NanoDSF thermal shift binding study, CD209 CRD; conditions: for Kd: calculated from EC50 with KD=(1−fuo)×(EC50−[P]/2); for EC50: 12 μM protein, unfolded fraction evaluated at 63 °C, Hill fit, read-out: EC50 (unfolded fraction vs TS concentration)
T2 construct: Carbohydrate recognition domain of CD209; inferred from HisTrap/imidazole purification; made in house
T2 sequence (Q9NNX6 263-378 limits assumed): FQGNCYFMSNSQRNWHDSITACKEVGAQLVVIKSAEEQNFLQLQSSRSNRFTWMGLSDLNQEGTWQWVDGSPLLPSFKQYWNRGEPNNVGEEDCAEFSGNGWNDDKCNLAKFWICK
Experimental: as §1, §2
3 NanoDSF study for binding of mono- and trivalent TSs ManN3, Man3N3, (Man)3N3, and (Man3)3N3 to the CRDs of CD206 and CD209. (A) Affinity of mono- and trivalent TSs for CRD4 of CD206. (B) Affinity of mono- and trivalent TSs for CRD of CD209. The unfolded fraction of each CRD at different TS concentrations was determined at 53 °C for CD206 and at 63 °C for CD209. The unfolded fraction was plotted against TS concentration, and EC50 values were determined using GraphPad Prism 8.0.1. The respective K D values were calculated from EC50, as described in section , and are given for each case.
D (150 mM NaCl, 25 mM Tris-Cl, pH 7.8, 25 mM CaCl₂), the bound protein was eluted with buffer E (150 mM NaCl, 25 mM Tris-Cl, pH 7.8, 2.5 mM EDTA).
6.1.2 Carbohydrate recognition domain of CD209
The recombinant CRD of CD209 was expressed as described previously.55 Briefly, a pET-30 expression vector containing the CRD of CD209 was transformed into competent Escherichia coli (E. coli) BL21 (DE3) cells. The cells were grown in LB medium containing 100 µg/mL kanamycin at 37 °C and 160 rpm until they reached an optical density (OD₆₀₀) of approximately 0.7. Overexpression was induced by adding 0.5 mM IPTG for approximately 3 hours at 37 °C. Cells were harvested by centrifugation (10.000 × g at 4 °C for 15 minutes) and resuspended in cold buffer A (25 mM Tris-Cl, 150 mM NaCl, pH 8) supplemented with lysozyme, one tablet of protease inhibitor (cOmplete ™, Roche), and DNase I. Lysis was performed by thoroughly sonicating the resuspended cell pellets. Cell debris and inclusion bodies were collected by centrifugation (20,000 × g at 4 °C for 1 hour), and the supernatant was discarded. The inclusion bodies were resuspended in buffer A supplemented with 2 M urea and 1% Triton X-100. After a second centrifugation step, the inclusion bodies were solubilized in buffer A supplemented with 6 M guanidine hydrochloride and 0.01 % 2-mercaptoethanol. Insoluble impurities were removed by centrifugation (20.000 × g at 4 °C for 1 hour). The resulting supernatant was dialyzed […]

[1] = test system: tetrameric extracellular domains (ECDs) of CD209; parameters: method as in Li et al.; conditions: TS presented in a trivalent manner, SPR, CD209 ECD; ref Li et al.; read-out: IC50 (binding affinity), trivalent presentation; cited from earlier work

Molecule | Kd (CD206 CRD4) [mM] | Kd (CD209 CRD) [mM] | IC50 [1] [mM] | EC50 (CD206 CRD4) [mM] | EC50 (CD209 CRD) [mM]
[N-]=[N+]=NCCOCCOCCOCCC(=O)NC(COCCC(=O)NCCOCCOCCOCCn1cc(CO[C@H]2O[C@H](CO[C@H]3O[C@H](CO)[C@@H](O)[C@H](O)[C@@H]3O)[C@@H](O)[C@H](O[C@H]3O[C@H](CO)[C@@H](O)[C@H](O)[C@@H]3O)[C@@H]2O)nn1)(COCCC(=O)NCCOCCOCCOCCn1cc(CO[C@H]2O[C@H](CO[C@H]3O[C@H](CO)[C@@H](O)[C@H](O)[C@@H]3O)[C@@H](O)[C@H](O[C@H]3O[C@H](CO)[C@@H](O)[C@H](O)[C@@H]3O)[C@@H]2O)nn1)COCCC(=O)NCCOCCOCCOCCn1cc(CO[C@H]2O[C@H](CO[C@H]3O[C@H](CO)[C@@H](O)[C@H](O)[C@@H]3O)[C@@H](O)[C@H](O[C@H]3O[C@H](CO)[C@@H](O)[C@H](O)[C@@H]3O)[C@@H]2O)nn1 [(Man3)3N3] | 3.1 | > 26.6 |  |  | 
trimannose |  |  | 0.0024 |  | 
[N-]=[N+]=NCCOCCOCCOCCC(=O)NC(COCCC(=O)NCCOCCOCCOCCn1cc(CO[C@H]2O[C@H](CO)[C@@H](O)[C@H](O)[C@@H]2O)nn1)(COCCC(=O)NCCOCCOCCOCCn1cc(CO[C@H]2O[C@H](CO)[C@@H](O)[C@H](O)[C@@H]2O)nn1)COCCC(=O)NCCOCCOCCOCCn1cc(CO[C@H]2O[C@H](CO)[C@@H](O)[C@H](O)[C@@H]2O)nn1 [(Man)3N3] | 6.8 | 10.3 |  |  | 
[N-]=[N+]=NCCOCCOCCOCCn1cc(CO[C@H]2O[C@H](CO)[C@@H](O)[C@H](O)[C@@H]2O)nn1 [ManN3] | 1.3 | > 36.3 |  | 3.1 ± 0.6 | > 79.8
[N-]=[N+]=NCCOCCOCCOCCn1cc(CO[C@H]2O[C@H](CO[C@H]3O[C@H](CO)[C@@H](O)[C@H](O)[C@@H]3O)[C@@H](O)[C@H](O[C@H]3O[C@H](CO)[C@@H](O)[C@H](O)[C@@H]3O)[C@@H]2O)nn1 [Man3N3] | 6.9 | 7.2 |  | 14.9 ± 0.97 | 16.4 ± 1.9
